Assay results: US20250243176A1, “(S)-1-(1-ACRYLOYLPIPERIDIN-3-YL)-2-FLUORO-5,6,7,8,9,10-HEXAHYDROCYCLO HEPTA[B]INDOLE-4-CARBOXAMIDE, AND RELATED CRYSTALLINE FORMS, COMPOSITIONS, AND METHODS THEREOF” (GB005, Inc., priority 2021, published 2025)
Converted amounts (≈) assume the structure as drawn.

How the values were obtained:
[1] = Solubility testing in vehicle, HPLC (Form III); assay type: physicochemical; details: thermodynamic from solid
Description: In each of the following studies (Examples 6-10), the starting material was Compound 1 (free form, not salt) Form III. The material was a light yellow solid, comprising non-hygroscopic irregular shaped crystal with aggregation. The same analytical methods as described in Example 1 were employed.
Vehicle solutions were prepared as follows:
Solubility was determined at room temperature for 24 and 72 hours and at 45° C. for 4 and 24 hours. About 30/100 mg Compound 1 was added to vehicle (2 mL) and the mixture stirred at room temperature for 24 or 72 hours. The suspensions were filtered or centrifuged, and the filtrate analyzed by HPLC.

[2] = Further solubility testing in excipients, HPLC; assay type: physicochemical
Description: Compound 1 (˜0.5 g) was added to each excipient until visually saturated. The mixtures were incubated on a temperature-controlled mixer with glass beads to facilitating mixing, for at least 48 hours at room temperature (liquid excipients) or 40° C. (semisolid excipients). The samples were then centrifuged using 0.45 μm PVDF filter to separate the liquid and solid portions. The amount of dissolved compound in the filtrate was quantified by HPLC. XRPD analysis of any solid powder confirmed there was no change in form. The solubility results are presented in Table 16 and show Compound 1 had high solubility (>30 mg/g) in most of the screened excipients.

[3] = oil or lipid, Phosal 50PG, RT, pH 5.8, loading 50 mg/mL
[4] = oil or lipid, Sesame oil, RT, pH 6.5, loading 15 mg/mL

C=CC(=O)N1CCC[C@@H](c2c(F)cc(C(N)=O)c3[nH]c4c(c23)CCCCC4)C1 [Compound 1, (S)-1-(1-acryloylpiperidin-3-yl)-2-fluoro-5,6,7,8,9,10-hexahydrocyclohepta[b]indole-4-carboxamide]
solubility at 24 h [1, 3]: 15.7 mg/mL (≈ 40.8 mM)
solubility at 72 h [1, 3]: 23.8 mg/mL (≈ 62 mM)
solubility at 24 h [1, 4]: 0.73 mg/mL (≈ 1.9 mM)
solubility at 72 h [1, 4]: 0.76 mg/mL (≈ 1.98 mM)
solubility at 4 h ([1]; oil or lipid, phsal 53 MCT, 45° C., pH 5.3, loading 15 mg/mL): 6.4 mg/mL (≈ 16.7 mM)
solubility at 24 h ([1]; oil or lipid, phsal 53 MCT, 45° C., pH 5.1, loading 15 mg/mL): > 15 mg/mL
solubility at 24 h ([1]; organic solvent or mixture, Cremophor EL, RT, pH 8.5, loading 50 mg/mL): 19.5 mg/mL (≈ 50.9 mM)
solubility at 72 h ([1]; organic solvent or mixture, Cremophor EL, RT, pH 8.3, loading 50 mg/mL): 33 mg/mL (≈ 86.1 mM)
solubility at 4 h ([1]; organic solvent or mixture, Cremophor HS 15, 45° C., pH 7.6, loading 50 mg/mL): > 50 mg/mL
solubility at 24 h ([1]; organic solvent or mixture, Cremophor HS 15, 45° C., pH 7.5, loading 50 mg/mL): > 50 mg/mL
solubility at 24 h ([1]; organic solvent or mixture, Cremophor RH40, 45° C., loading 50 mg/mL): 33 mg/mL (≈ 86.1 mM)
solubility at 24 h ([1]; organic solvent or mixture, EtOH, RT, pH 5.9, loading 50 mg/mL): 19.4 mg/mL (≈ 50.6 mM)
solubility at 72 h ([1]; organic solvent or mixture, EtOH, RT, pH 6.2, loading 50 mg/mL): 27.6 mg/mL (≈ 72 mM)
solubility at 4 h ([1]; organic solvent or mixture, PEG400/TPGS(3/1), 45° C., pH 6.6, loading 50 mg/mL): > 50 mg/mL
solubility at 24 h ([1]; organic solvent or mixture, PEG400/TPGS(3/1), 45° C., pH 6.1, loading 50 mg/mL): > 50 mg/mL
solubility at 24 h ([1]; organic solvent or mixture, PEG400, RT, pH 5.6, loading 50 mg/mL): > 50 mg/mL
solubility at 72 h ([1]; organic solvent or mixture, PEG400, RT, pH 6.7, loading 50 mg/mL): > 50 mg/mL
solubility at 24 h ([1]; organic solvent or mixture, PG, RT, pH 5.1, loading 50 mg/mL): 48.2 mg/mL (≈ 126 mM)
solubility at 72 h ([1]; organic solvent or mixture, PG, RT, pH 5.2, loading 50 mg/mL): > 50 mg/mL
Solubility ([2]; Capryol PGMC, at least 48 hours, RT (liquid) or 40° C. (semisolid excipients)): 38.1 mg/g
Solubility ([2]; Gelucire 44/14, at least 48 hours, RT (liquid) or 40° C. (semisolid excipients)): 48.9 mg/g
Solubility ([2]; Gelucire 50/13, at least 48 hours, RT (liquid) or 40° C. (semisolid excipients)): 45.9 mg/g
Solubility ([2]; Kolliphor ELP, at least 48 hours, RT (liquid) or 40° C. (semisolid excipients)): 36.5 mg/g
Solubility ([2]; Kolliphor HS 15, at least 48 hours, RT (liquid) or 40° C. (semisolid excipients)): 53.6 mg/g
Solubility ([2]; Kolliphor RH40, at least 48 hours, RT (liquid) or 40° C. (semisolid excipients)): 52.4 mg/g
Solubility ([2]; Labrafil M 1944 CS, at least 48 hours, RT (liquid) or 40° C. (semisolid excipients)): 10.7 mg/g
Solubility ([2]; Labrafil M 2125 CS, at least 48 hours, RT (liquid) or 40° C. (semisolid excipients)): 9.3 mg/g
Solubility ([2]; Labrasol ALF, at least 48 hours, RT (liquid) or 40° C. (semisolid excipients)): 68.1 mg/g
Solubility ([2]; Lauroglycol FCC, at least 48 hours, RT (liquid) or 40° C. (semisolid excipients)): 16.0 mg/g
Solubility ([2]; Maisine CC, at least 48 hours, RT (liquid) or 40° C. (semisolid excipients)): 16.7 mg/g
Solubility ([2]; Masester E8120, at least 48 hours, RT (liquid) or 40° C. (semisolid excipients)): 65.3 mg/g
Solubility ([2]; Miglyol 812N, at least 48 hours, RT (liquid) or 40° C. (semisolid excipients)): 2.9 mg/g
Solubility ([2]; Oleic Acid, at least 48 hours, RT (liquid) or 40° C. (semisolid excipients)): 21.0 mg/g
Solubility ([2]; PEG 400, at least 48 hours, RT (liquid) or 40° C. (semisolid excipients)): 77.3 mg/g
Solubility ([2]; Peceol, at least 48 hours, RT (liquid) or 40° C. (semisolid excipients)): 22.8 mg/g
Solubility ([2]; Sesame Oil, at least 48 hours, RT (liquid) or 40° C. (semisolid excipients)): 1.9 mg/g
Solubility ([2]; Span 80, at least 48 hours, RT (liquid) or 40° C. (semisolid excipients)): 12.2 mg/g
Solubility ([2]; Transcutol HP, at least 48 hours, RT (liquid) or 40° C. (semisolid excipients)): 118.6 mg/g
Solubility ([2]; Tween 20, at least 48 hours, RT (liquid) or 40° C. (semisolid excipients)): 48.6 mg/g
Solubility ([2]; Tween 80, at least 48 hours, RT (liquid) or 40° C. (semisolid excipients)): 49.0 mg/g
Solubility ([2]; Vitamin E TPGS, at least 48 hours, RT (liquid) or 40° C. (semisolid excipients)): 40.8 mg/g
Solubility ([2]; in most of the screened excipients): > 30 mg/g
